Laboratory results from ChEMBL document CHEMBL1201862, “PubChem BioAssay data set” (2004).
The source made the active and inactive calls.

Tests used:
[1] = molecular target: Peroxisome proliferator-activated receptor gamma/Nuclear receptor coactivator 3 (Homo sapiens, UniProt P37231); experiment: TR-FRET dose response biochemical High Throughput Screening assay for agonists of the steroid receptor coactivator 3 (SRC-3) recruitment by the peroxisome proliferator-activated receptor gamma (PPAR gamma): non-selective agonists. [Related pubchem assays: 1301 (Confirmation screen.), 1048 (Primary screen.)]; assay type: functional
Cytochrome P450 2D6 = Cytochrome P450 2D6 (Homo sapiens, UniProt P10635);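 further: CYP2D6 member of a cytochrome P450 panel assay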
[2] = molecular target: Peroxisome proliferator-activated receptor gamma/Nuclear receptor coactivator 2 (Homo sapiens, UniProt P37231); experiment: (§1) TR-FRET dose response biochemical High Throughput Screening assay for agonists of the steroid receptor coactivator 2 (SRC-2) recruitment by the peroxisome proliferator-activated receptor gamma (PPAR gamma): non-selective agonists. [Related pubchem assays: 1297, 1032 ]; assay type: functional
[3] = molecular target: Peroxisome proliferator-activated receptor gamma/Nuclear receptor coactivator 1 (Homo sapiens, UniProt P37231); experiment: as §1, with “1 (SRC-1)” for “2 (SRC-2)”, “assays (depositor defined):AID1300, AID1808, AID504735, AID631]” for “assays: 1297, 1032 ]”; assay type: protein assay
[4] = cytotoxicity in HEK-293T cells, dose response, cytotoxicity control for TCR NF-kB inhibitor project, luminescence, T-cell screen hits (AID 489026); assay type: functional, cell-based;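 further: cells exposed to compound about 14 hours before the viability readout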
[5] = Luminescence Cell-Based Dose Retest to Confirm Inhibitors of Cancer Stem Cells. [Related pubchem assays (depositor defined):AID2717, AID2721]; assay type: functional; conditions: Homo sapiens
[6] = ZM109 Env clade C HIV-1 fusion inhibitors, dose response, HeLa effector, CEM target cells, luciferase, cherry-pick (AID 652058); assay type: functional, cell-based
[7] = inhibitors of HIV Env-driven cell fusion, dose response, cherry-pick (AID 652057); assay type: functional, cell-based
[8] = off-target signal loss in HeLa-CEM21 co-culture – HeLa F-luc CTL cells, cherry-picked, counter-screen for HIV-1 Env fusion inhibitor project, dose response (AID 652040); assay type: functional, cell-based;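 further: potency for signal decrease marking cytotoxic or nonspecific inhibition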
Cytochrome P450 1A2 = molecular target: T1, Cytochrome P450 1A2 (Homo sapiens, UniProt P05177);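 further: PubChem cytochrome P450 panel assay, CYP1A2 panel member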
T1 sequence (P05177 whole entry): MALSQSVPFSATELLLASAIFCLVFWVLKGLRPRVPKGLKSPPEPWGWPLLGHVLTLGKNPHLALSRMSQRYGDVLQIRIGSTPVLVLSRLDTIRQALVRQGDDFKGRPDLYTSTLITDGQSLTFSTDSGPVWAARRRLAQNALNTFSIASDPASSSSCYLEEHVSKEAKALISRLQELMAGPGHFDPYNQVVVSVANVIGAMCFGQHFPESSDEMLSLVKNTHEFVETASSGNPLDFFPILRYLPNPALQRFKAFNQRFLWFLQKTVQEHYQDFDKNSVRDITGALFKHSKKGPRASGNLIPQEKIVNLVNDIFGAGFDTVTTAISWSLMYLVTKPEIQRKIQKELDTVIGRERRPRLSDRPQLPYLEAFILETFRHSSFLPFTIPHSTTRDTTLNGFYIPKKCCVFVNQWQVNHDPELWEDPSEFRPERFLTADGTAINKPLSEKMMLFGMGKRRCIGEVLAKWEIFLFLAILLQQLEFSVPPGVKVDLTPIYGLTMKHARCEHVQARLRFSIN

[9] = inhibitors of clade B AD8 Env fusion, dose response, cell-based, cherry-pick (AID 652062); assay type: functional;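 further: luciferase signal from cell-cell fusion driven by HIV-1 clade B AD8 Env; potency is for inhibitors of fusion seen as a drop in luminescence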
[10] = molecular target: Voltage-gated inwardly rectifying potassium channel KCNH2 (Homo sapiens, UniProt Q12809); conditions: Potency;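 further: confirmatory quantitative high-throughput screen measuring inhibition of hERG channel activity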
[11] = inhibitors of intracellular T. cruzi replication, confirmation, NIH3T3 host cells, beta-gal luminescence (AID 2044); assay type: functional, cell-based;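 further: intracellular parasites grown in NIH/3T3 mouse fibroblasts as host cells; luminescent beta-galactosidase reporter signal from transgenic T. cruzi replicating inside host cells; inhibitors lower the luminescence signal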
[12] = cytotoxicity toward NIH3T3 fibroblasts, dose response, counter-screen, cell-based, ATP luminescence, mouse fibroblasts (AID 2010); assay type: functional;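 further: cells exposed to compound for about 90 hours before reading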
[13] = molecular target: T2, Microphthalmia-associated transcription factor (Homo sapiens, UniProt O75030); experiment: TRPM1 promoter luciferase signal decrease, dose response, MITF inhibitor project, cell-based, SK-MEL-5, cherry-picked, set 3 (AID 493073); assay type: functional
T2 sequence (O75030 whole entry): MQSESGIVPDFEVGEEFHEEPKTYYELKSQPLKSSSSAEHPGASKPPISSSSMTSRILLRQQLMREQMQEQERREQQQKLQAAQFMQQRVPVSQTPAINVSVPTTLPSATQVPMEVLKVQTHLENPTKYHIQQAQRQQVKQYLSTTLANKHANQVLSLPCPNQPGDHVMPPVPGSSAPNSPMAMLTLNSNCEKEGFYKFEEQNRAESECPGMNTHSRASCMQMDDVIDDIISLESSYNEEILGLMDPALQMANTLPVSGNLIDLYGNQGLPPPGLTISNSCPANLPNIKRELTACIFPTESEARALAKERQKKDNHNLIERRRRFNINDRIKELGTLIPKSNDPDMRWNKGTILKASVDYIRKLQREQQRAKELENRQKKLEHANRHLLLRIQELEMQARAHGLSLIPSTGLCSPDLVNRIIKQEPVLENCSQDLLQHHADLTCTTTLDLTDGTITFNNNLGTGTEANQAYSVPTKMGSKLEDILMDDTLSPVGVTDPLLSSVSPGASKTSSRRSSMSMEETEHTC

Insulin-degrading enzyme [14] = molecular target: T3, Insulin-degrading enzyme (Homo sapiens, UniProt P14735); experiment: activators of endogenous IDE in HEK cells, dose response, cell-based, fluorescence polarization (AID 588439); assay type: functional
T3 sequence (P14735 whole entry): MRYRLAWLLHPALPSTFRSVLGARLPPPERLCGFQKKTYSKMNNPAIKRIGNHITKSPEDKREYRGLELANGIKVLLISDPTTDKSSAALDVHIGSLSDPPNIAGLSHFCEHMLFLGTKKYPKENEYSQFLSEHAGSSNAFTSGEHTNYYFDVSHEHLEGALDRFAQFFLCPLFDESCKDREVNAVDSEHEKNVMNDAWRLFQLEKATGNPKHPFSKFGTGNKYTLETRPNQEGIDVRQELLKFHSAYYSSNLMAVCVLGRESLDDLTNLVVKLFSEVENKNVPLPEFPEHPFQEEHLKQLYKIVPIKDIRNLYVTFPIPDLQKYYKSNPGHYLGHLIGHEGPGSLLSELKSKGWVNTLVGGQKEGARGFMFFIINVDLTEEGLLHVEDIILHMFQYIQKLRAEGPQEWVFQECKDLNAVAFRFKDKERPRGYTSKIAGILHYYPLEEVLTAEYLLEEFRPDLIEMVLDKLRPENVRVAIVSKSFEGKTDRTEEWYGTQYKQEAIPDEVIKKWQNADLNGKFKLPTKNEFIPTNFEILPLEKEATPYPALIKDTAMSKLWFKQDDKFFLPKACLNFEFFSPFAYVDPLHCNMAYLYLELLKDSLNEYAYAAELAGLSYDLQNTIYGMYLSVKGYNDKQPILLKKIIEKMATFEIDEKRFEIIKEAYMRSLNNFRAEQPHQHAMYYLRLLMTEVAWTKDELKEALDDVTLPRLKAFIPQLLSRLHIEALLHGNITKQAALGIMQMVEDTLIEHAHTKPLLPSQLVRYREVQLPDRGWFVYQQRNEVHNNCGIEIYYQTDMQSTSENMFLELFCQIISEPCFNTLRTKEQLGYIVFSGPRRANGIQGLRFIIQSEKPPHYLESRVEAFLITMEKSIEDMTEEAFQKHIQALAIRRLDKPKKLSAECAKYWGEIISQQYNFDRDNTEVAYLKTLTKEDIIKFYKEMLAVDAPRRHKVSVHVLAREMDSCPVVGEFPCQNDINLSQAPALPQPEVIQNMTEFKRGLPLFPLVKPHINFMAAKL

HEK293 [15] = experiment: optical interference in Abeta FP readout, dose response, artefact control for IDE activator project, biochemical, fluorescence polarization (AID 588442); assay type: functional, cell-based; conditions: Homo sapiens
Insulin-degrading enzyme [16] = molecular target: T3, Insulin-degrading enzyme; experiment: activators of recombinant IDE enzyme, dose response, counter-screen for IDE activator project, biochemical, fluorescence polarization (AID 588681)
HEK293 [17] = experiment: HEK cell cytotoxicity by LDH release, dose response, cytotoxicity control for IDE activator project, fluorescence, HEK cells (AID 588440); assay type: functional, cell-based; conditions: Homo sapiens;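 further: cytotoxicity by LDH release measuring loss of membrane integrity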

Chain of Voltage-gated inwardly rectifying potassium channel KCNH2 (Q12809 whole entry): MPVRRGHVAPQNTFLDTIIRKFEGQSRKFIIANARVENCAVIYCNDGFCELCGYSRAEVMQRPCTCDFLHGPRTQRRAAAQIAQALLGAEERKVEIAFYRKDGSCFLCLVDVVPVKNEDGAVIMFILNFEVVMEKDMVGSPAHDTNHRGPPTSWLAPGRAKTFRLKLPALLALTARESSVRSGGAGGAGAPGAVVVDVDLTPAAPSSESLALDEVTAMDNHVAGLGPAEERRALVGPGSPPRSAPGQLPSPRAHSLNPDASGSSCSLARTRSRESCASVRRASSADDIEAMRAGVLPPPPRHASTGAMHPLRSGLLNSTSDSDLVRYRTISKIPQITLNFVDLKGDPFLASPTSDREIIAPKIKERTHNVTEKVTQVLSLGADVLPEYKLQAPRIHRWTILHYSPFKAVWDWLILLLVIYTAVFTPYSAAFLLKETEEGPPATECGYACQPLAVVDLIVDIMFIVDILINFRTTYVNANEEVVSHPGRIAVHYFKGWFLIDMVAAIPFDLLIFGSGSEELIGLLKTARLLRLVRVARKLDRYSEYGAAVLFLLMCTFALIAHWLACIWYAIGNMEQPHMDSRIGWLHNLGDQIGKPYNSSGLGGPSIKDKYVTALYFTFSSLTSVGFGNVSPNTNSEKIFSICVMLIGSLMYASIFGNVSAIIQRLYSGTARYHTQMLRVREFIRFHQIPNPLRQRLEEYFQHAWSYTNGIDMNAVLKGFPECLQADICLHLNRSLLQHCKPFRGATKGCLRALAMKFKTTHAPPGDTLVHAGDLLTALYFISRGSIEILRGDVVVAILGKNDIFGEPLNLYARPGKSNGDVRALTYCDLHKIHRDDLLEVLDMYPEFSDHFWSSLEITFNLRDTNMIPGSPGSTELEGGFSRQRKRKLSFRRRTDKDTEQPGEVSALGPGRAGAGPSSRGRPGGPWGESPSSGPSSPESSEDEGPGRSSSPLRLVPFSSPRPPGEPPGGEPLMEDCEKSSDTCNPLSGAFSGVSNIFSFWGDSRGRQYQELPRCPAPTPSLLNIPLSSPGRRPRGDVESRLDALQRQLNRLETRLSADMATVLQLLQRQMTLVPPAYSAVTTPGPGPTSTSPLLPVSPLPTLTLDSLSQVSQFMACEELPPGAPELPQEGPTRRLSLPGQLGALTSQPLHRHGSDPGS
Chain of Peroxisome proliferator-activated receptor gamma/Nuclear receptor coactivator 2 (P37231 whole entry): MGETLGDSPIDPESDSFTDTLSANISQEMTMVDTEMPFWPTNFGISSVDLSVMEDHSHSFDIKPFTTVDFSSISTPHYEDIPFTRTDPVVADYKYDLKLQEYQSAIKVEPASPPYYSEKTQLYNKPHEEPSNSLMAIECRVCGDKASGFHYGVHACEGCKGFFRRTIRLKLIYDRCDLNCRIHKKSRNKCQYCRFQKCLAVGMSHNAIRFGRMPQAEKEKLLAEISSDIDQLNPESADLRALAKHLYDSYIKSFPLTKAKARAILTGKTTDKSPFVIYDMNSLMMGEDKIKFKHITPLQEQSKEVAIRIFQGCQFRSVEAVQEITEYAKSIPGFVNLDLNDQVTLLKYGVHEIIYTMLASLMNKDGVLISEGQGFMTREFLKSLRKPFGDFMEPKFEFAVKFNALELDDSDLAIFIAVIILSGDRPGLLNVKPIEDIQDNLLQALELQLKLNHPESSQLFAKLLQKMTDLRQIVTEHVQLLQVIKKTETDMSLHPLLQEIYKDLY
Chain of Peroxisome proliferator-activated receptor gamma/Nuclear receptor coactivator 2 (Q15596 whole entry, further chain): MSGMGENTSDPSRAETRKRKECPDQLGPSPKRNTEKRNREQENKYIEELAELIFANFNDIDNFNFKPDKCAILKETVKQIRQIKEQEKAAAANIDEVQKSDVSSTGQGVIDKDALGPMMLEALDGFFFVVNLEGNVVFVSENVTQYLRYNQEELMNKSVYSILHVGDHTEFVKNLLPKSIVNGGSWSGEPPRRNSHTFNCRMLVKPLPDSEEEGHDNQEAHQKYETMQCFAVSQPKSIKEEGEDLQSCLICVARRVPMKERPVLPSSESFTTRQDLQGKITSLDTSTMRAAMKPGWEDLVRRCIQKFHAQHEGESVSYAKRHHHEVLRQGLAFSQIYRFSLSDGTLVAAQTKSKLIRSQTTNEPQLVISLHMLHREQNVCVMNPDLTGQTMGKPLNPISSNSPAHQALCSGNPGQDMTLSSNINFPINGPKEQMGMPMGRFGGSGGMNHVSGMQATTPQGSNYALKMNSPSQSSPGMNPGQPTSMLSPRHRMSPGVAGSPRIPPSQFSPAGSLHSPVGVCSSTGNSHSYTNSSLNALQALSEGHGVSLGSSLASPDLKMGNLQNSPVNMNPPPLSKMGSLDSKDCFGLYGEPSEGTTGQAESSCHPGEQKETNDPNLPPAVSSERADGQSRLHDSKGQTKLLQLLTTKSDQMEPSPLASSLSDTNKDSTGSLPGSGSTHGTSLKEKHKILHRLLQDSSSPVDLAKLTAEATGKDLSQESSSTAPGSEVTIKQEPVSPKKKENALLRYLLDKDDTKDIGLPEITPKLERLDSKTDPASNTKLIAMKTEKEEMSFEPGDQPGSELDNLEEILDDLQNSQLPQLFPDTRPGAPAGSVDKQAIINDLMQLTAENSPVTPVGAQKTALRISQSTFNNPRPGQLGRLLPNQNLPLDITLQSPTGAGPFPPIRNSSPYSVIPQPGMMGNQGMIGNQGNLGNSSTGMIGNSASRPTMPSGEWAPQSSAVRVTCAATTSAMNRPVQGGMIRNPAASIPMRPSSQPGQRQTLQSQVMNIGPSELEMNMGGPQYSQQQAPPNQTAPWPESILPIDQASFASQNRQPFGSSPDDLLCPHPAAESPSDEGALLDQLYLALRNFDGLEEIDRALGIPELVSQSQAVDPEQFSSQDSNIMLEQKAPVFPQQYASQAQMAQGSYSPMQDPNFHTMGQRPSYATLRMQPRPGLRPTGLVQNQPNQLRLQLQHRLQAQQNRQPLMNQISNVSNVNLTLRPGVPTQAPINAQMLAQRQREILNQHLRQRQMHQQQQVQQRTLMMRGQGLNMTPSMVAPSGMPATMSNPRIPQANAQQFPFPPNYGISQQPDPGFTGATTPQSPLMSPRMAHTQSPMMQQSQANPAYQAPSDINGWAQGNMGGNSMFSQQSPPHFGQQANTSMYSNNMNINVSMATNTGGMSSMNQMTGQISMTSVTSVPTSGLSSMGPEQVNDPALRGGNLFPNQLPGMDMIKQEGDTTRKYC
Chain of Peroxisome proliferator-activated receptor gamma/Nuclear receptor coactivator 3 (P37231 whole entry): as the sequence (P37231 whole entry) above
Chain of Peroxisome proliferator-activated receptor gamma/Nuclear receptor coactivator 3 (Q9Y6Q9 whole entry, further chain): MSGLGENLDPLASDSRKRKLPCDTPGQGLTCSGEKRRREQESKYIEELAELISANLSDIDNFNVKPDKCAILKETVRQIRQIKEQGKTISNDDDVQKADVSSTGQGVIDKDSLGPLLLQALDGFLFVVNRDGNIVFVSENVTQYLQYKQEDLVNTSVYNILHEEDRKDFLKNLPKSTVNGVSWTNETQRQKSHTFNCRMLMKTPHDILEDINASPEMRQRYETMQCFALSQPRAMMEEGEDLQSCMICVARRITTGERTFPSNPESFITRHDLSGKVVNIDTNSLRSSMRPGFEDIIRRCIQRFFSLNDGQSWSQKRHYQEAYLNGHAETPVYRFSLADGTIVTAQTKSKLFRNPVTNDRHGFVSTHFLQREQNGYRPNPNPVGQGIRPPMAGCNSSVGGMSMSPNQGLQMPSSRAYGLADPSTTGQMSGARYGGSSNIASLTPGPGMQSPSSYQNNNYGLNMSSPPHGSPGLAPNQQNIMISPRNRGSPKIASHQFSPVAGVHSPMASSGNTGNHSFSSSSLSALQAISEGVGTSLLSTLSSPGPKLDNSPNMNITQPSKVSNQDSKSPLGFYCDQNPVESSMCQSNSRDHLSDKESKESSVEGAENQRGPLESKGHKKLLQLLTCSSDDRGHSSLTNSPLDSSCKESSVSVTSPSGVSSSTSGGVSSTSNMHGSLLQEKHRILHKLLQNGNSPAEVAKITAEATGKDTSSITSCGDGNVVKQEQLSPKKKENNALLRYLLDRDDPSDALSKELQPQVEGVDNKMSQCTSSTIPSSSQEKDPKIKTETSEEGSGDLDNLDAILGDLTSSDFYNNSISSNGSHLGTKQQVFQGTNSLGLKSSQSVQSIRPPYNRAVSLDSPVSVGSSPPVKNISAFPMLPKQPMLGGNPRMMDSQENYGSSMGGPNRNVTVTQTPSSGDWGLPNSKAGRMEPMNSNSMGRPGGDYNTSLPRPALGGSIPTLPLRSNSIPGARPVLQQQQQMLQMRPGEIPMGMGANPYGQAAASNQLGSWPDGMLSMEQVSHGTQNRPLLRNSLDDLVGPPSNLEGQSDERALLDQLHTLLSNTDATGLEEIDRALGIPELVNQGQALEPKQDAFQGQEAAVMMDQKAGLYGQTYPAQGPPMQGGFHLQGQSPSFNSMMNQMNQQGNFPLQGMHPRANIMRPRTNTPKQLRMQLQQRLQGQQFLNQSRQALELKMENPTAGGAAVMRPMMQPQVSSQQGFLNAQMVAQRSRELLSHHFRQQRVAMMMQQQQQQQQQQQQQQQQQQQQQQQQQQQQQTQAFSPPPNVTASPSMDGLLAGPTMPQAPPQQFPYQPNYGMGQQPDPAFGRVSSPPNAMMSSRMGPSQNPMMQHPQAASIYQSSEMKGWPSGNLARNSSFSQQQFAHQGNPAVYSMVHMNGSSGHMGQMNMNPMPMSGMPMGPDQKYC

In the case of CCOc1ccc2c(c1)nc(SCC(=O)c1ccc(Br)s1)n2C, the EC50 [1] is reported as > 79.4 µM (not active), the AC50 (Cytochrome P450 2D6) is reported as 12.6 µM (inconclusive) and the EC50 [2] is reported as 22.9 µM (not active). For the same compound, the EC50 [3] was > 79.4 µM (inactive).
With O=C(Nc1ccc(C(F)(F)F)cc1)c1cccn(Cc2ccc3c(c2)OC(F)(F)O3)c1=O the IC50 [4] was > 80 µM (inactive), the AC50 [5] was 3.68 µM (active) and the AC50 [6] was 590 nM (active). For the same compound, the AC50 [7] was 22.5 µM (active), the AC50 [8] was 50.7 µM (active) and the AC50 (Cytochrome P450 1A2) was 25.1 µM (inconclusive). The AC50 [9] was 6 µM (active).
With CN1CCC23CCCC[C@H]2C1Cc1ccc(O)cc13 (stereo partly drawn) the AC50 [10] was 2.51 µM (inconclusive).
In the case of CN(Cc1ccccc1)C1=CC(=[N+]2CCCC2)CC(C)(C)C1, the IC50 [4] is reported as > 80 µM (inactive), the EC50 [11] is reported as 171 nM (active) and the EC50 [12] is reported as > 60 µM (not active). For the same compound, the AC50 [13] was 1.55 µM (active).
With C=C(C)COc1ccc(-c2[nH]nc(C)c2-c2ccc(OC)c(OC)c2)c(O)c1 the IC50 [4] was 44.6 µM (inactive) and the AC50 [5] was 1.36 µM (active).
For O=C(Nc1ccc(S(=O)(=O)N2CCCCC2)cc1)c1ccc(CN2CCOCC2)cc1, the IC50 [4] was 27.2 µM (inactive).
With OC(CNC1CCCCC1)C(F)(F)F (stereo not drawn) the EC50 (Insulin-degrading enzyme [14]) was > 54.7 µM (inactive), the EC50 (HEK293 [15]) was > 55.9 µM (inactive) and the EC50 (Insulin-degrading enzyme [16]) was > 54.7 µM (inactive). The IC50 (HEK293 [17]) was > 89.1 µM (inactive).
